Measured values reported in US20250186442A1, “Obicetrapib and Ezetimibe Combination Treatment and Fixed Dose Pharmaceutical Compositions” (NewAmsterdam Pharma B.V., priority 2022, published 2025).

System: ApoB
Experiment: ROSE2 phase 2b clinical trial - ApoB
Type: in vivo, human
Conditions: obicetrapib 10 mg, ezetimibe 10 mg
Procedure: The secondary objectives of this study include the following, in hierarchical order: • To evaluate the effect of obicetrapib 10 mg monotherapy compared with placebo, when used as an adjunct to high-intensity statin therapy, on LDL-C at Day 84; • To evaluate the effect of obicetrapib 10 mg+ezetimibe 10 mg combination therapy compared with placebo, when used as an adjunct to high-intensity statin therapy, on ApoB at Day 84; and • To evaluate the effect of obicetrapib 10 mg monotherapy compared with placebo, when used as an adjunct to high-intensity statin therapy, on ApoB at Day 84.
This study will be a placebo-controlled, double-blind, randomized, Phase 2 study to evaluate the efficacy, safety, and tolerability of obicetrapib 10 mg, both in combination with ezetimibe 10 mg and as monotherapy, as an adjunct to high-intensity statin therapy. This study will take place at approximately 20 sites in the United States.
Up to 2 weeks after the Screening Visit, participants will return to the site on Day 1 (Visit 2) and confirm study eligibility before being randomized and beginning treatment. Approximately 114 eligible participants (38 participants per treatment group) will be randomized in a 1:1:1 ratio to 1 of the following treatment groups: • Combination therapy: Obicetrapib 10 mg+ezetimibe 10 mg (administered as one 10 mg obicetrapib tablet and one 10 mg ezetimibe capsule); • Obicetrapib monotherapy: Obicetrapib 10 mg (administered as one 10 mg obicetrapib tablet and 1 placebo capsule); or • Placebo (administered as 1 placebo tablet and 1 placebo capsule).
The secondary efficacy endpoints include the following, in hierarchical order: • Percent change from Day 1 to Day 84 in LDL-C for the obicetrapib 10 mg monotherapy • treatment group compared with the placebo group; • Percent change from Day 1 to Day 84 in ApoB for the obicetrapib 10 mg+ezetimibe 10 mg • combination treatment group compared with the placebo group; and • Percent change from Day 1 to Day 84 in ApoB for the obicetrapib 10 mg monotherapy treatment group compared with the placebo group.
Blood samples for the lipid profile must be obtained under fasting conditions (ie, after the participant has fasted for approximately 10 hours). For the purposes of this study, fasting will be defined as nothing by mouth except water and any essential medications. If a participant is not fasting, the Investigator should reschedule the visit as soon as possible. LDL-C level will be calculated using the Friedewald equation unless TG≥400 mg/dL or LDL-C≤50 mg/dL; in both cases, LDL-C level will be measured directly by preparative ultracentrifugation, also referred to as beta quantification. Additionally, LDL-C will be measured by preparative ultracentrifugation, also referred to as beta quantification, at baseline (Visit 2) and at the end of the 12-week Treatment Period (Visit 4) for all participants.
The Modified ITT (mITT) Population will include all participants in the ITT Population who receive at least 1 dose of any study drug and have a baseline value for the LDL-C assessment. Any efficacy measurement obtained during the Safety Follow-up Visit (Visit 5) after a participant permanently discontinues the study drug or after a participant receives an excluded medication and/or procedure will be removed from the mITT analysis. Treatment classification will be based on the randomized treatment. The mITT Population will be used for the primary analysis of all efficacy endpoints.

With `CCOC(=O)N1c2ccc(C(F)(F)F)cc2[C@@H](N(Cc2cc(C(F)(F)F)cc(C(F)(F)F)c2)c2ncc(OCCCC(=O)O)cn2)C[C@H]1CC` [Obicetrapib, {4-[(2-{[3,5-bis(trifluoromethyl)benzyl][(2R,4S)-1-(ethoxycarbonyl)-2-ethyl-6-(trifluoromethyl)-1,2,3,4-tetrahydroquinolin-4-yl]amino}pyrimidin-5-yl)oxy]butanoic acid}] the “ApoB Change from Baseline to Day 28, Mean” value (Exploratory Population) was -24.2 mg/dL, the “ApoB Change from Baseline to Day 28, Median” value (Exploratory Population) was -23.0 mg/dL and the “ApoB Change from Baseline to Day 84, Mean” value (Exploratory Population) was -20.5 mg/dL. The “ApoB Change from Baseline to Day 84, Median” value (Exploratory Population) was -21.5 mg/dL, the “ApoB Day 28, Mean” value (Exploratory Population) was 65.4 mg/dL and the “ApoB Day 28, Median” value (Exploratory Population) was 64.5 mg/dL. The “ApoB Day 84, Mean” value (Exploratory Population) was 69.1 mg/dL, the “ApoB Day 84, Median” value (Exploratory Population) was 65.0 mg/dL and the “ApoB Percent Change from Baseline to Day 28 (%), Mean” value (Exploratory Population) was −26.00%. The “ApoB Percent Change from Baseline to Day 28 (%), Median” value (Exploratory Population) was −26.00%, the “ApoB Percent Change from Baseline to Day 84 (%), Mean” value (Exploratory Population) was −21.73% and the “ApoB Percent Change from Baseline to Day 84 (%), Median” value (Exploratory Population) was −24.20%. For the same compound, the “ApoB Change from Baseline to Day 28, Mean” value (mITT Population) was -18.9 mg/dL, the “ApoB Change from Baseline to Day 28, Median” value (mITT Population) was -20.0 mg/dL and the “ApoB Change from Baseline to Day 84, Mean” value (mITT Population) was -10.4 mg/dL. For the same compound, the “ApoB Change from Baseline to Day 84, Median” value (mITT Population) was -14.5 mg/dL, the “ApoB Day 28, Mean” value (mITT Population) was 73.4 mg/dL and the “ApoB Day 28, Median” value (mITT Population) was 66.0 mg/dL. The “ApoB Day 84, Mean” value (mITT Population) was 82.4 mg/dL, the “ApoB Day 84, Median” value (mITT Population) was 72.0 mg/dL and the “ApoB Percent Change from Baseline to Day 28 (%), Mean” value (mITT Population) was −19.16%. The “ApoB Percent Change from Baseline to Day 28 (%), Median” value (mITT Population) was −23.10%, the “ApoB Percent Change from Baseline to Day 84 (%), Mean” value (mITT Population) was −9.50% and the “ApoB Percent Change from Baseline to Day 84 (%), Median” value (mITT Population) was −17.35%.
